Patent publication US20150376099A1, “New 3,3',5,5'-Tetraisopropyl-4,4'-Diphenol Crystal Form And Preparation Method Thereof” (XI' AN LIBANG PHARMACEUTICAL CO., LTD., priority 2013, published 2015)

Tests used:
[1] = test system: GAGA receptor; conditions: cited from earlier work
[2] = test system: GABA; conditions: cited from earlier work
[3] = test system: NMDA receptors; conditions: cited from earlier work
[4] = test system: slow Ca^2+ channel; conditions: cited from earlier work
[5] = test system: kainate-induced excitotoxicity; conditions: cited from earlier work
[6] = compared with propofol; cited from earlier work
[7] = test system: brain; conditions: cited from earlier work
[8] = Stability of crystal forms under strong light; type: physicochemical; conditions: light stable box, illumination of 4500lux, 7 days
From the text: (§1) As compared with the solvate, the anhydrate and hydrate are more useful as pharmaceutical crystal forms. The relative stability of the crystal form is an important indicator to be investigated in the research of drug polymorph, and the stability under high temperature, high humidity, strong light, and in water is investigated for the crystal forms I and II.
The crystal forms I and II prepared in Example 6 and 15 were respectively placed in a light stable box with illumination of 4500lux for 7 days and then characterized, and the result was shown in Table 4.

[9] = Stability of crystal forms under high temperature; type: physicochemical; conditions: ventilated oven at 80° C. for 7 days, then characterized
Experimental: as §1
The crystal forms I and II prepared in Example 6 and 15 were respectively placed in a ventilated oven at 80° C. for 7 days and then characterized, and the result was shown in Table 4.

[10] = Stability of crystal forms under high humidity; type: physicochemical
Experimental: as §1
The crystal forms I and II prepared in Example 6 and 15 were respectively placed in a constant temperature and humidity chamber at 80° C. and 75% RH for 7 days and then characterized, and the result was shown in Table 4.

[11] = Stability of crystal forms suspended in water; type: physicochemical; conditions: suspended in water at 25° C. for 7 days
Experimental: as §1
The crystal forms I and II prepared in Example 6 and 15 were placed in water at 25° C. and suspended for 7 days and then characterized, and the result was shown in Table 4.

Q: For `CC(C)c1cc(-c2cc(C(C)C)c(O)c(C(C)C)c2)cc(C(C)C)c1O` [3,3′,5,5′-tetraisopropyl-4,4′-diphenol], which “Affinity for the GAGA receptor” value [1] is on record?
A: The value was “strong affinity”.

Q: And the GABA agonistic effect [2]?
A: Its GABA agonistic effect is “GABA agonistic effect”.

Q: And the “Antagonism of NMDA receptors” value [3]?
A: The value was “could antagonize NMDA receptors”.

Q: What about the “Ca^2+ influx in the slow Ca^2+ channel” value [4] of the same compound?
A: The value was “regulate Ca^2+ influx”.

Q: And the “Effect on kainate-induced excitotoxicity” value [5]?
A: Its value is “protective effect”.

Q: What about the Antioxidant effect [6] of the same compound?
A: The Antioxidant effect was “significantly stronger than propofol”.

Q: And the “Protective effect of brain” value [7]?
A: The value was “strong protective effect of brain”.

Q: Which “Crystal form found after Light” value [8] does the source give for `CC(C)c1cc(-c2cc(C(C)C)c(O)c(C(C)C)c2)cc(C(C)C)c1O` [crystal form I, 3,3′,5,5′-tetraisopropyl-4,4′-diphenol] here?
A: Its value is “good stability”.

Q: Which “Crystal form found after High temperature (80° C.)” value [9] does the source give for `CC(C)c1cc(-c2cc(C(C)C)c(O)c(C(C)C)c2)cc(C(C)C)c1O` [crystal form II, 3,3′,5,5′-tetraisopropyl-4,4′-diphenol] here?
A: Its value is “tendency of converting to the crystal form I”.

Q: What about the “Crystal form found after High temperature (80° C.)” value ([9]; listed as II) of the same compound?
A: Its value is “I, II”.

Q: What about the “Stability under high humidity conditions” value ([10]; 80° C. and 75% RH for 7 days (as printed in text)) of the same compound?
A: The value was “tendency of converting to the crystal form I”.

Q: What about the “Crystal form found after High humidity (40° C., 75% RH)” value ([10]; constant temperature and humidity chamber, 40° C., 75% RH, 7 days) of the same compound?
A: The value was “I (few), II”.

Q: What about the “Crystal form found after Water” value [11] of the same compound?
A: Its value is “tendency of converting to the crystal form I”.

Q: What about the “Crystal form found after Water” value ([11]; listed as II) of the same compound?
A: Its value is “I (few), II”.
